Read-outs that look alike come from different tables or passages of the source.
Key:
[1] = test system: Prostate cancer cell lines; experiment: NCI-60 five-dose, subpanel
Description: A measure of a compound’s selectivity for a given cell line is the ratio created by dividing the full panel mean graph midpoints (MG-MID) concentration by the individual subpanel MG-MID concentrations (obtained as the average sensitivity of all the cell lines in a given subpanel to the test compound).
Assessment of selectivity of a compound depends on the ratio obtained by dividing the full panel MID ^a by their individual subpanel MID ^b (µM) where MID^a is the average sensitivity of all cell lines towards the test agent (µM).

[2] = test system: leukaemia SR cells; experiment: Cell cycle analysis (propidium iodide, flow cytometry); format: cell-based, human; conditions: 48 h treatment
Description: (§1) Compound 1c was selected as a potent candidate, its effect on cell cycle phases of HL60 and leukaemia SR cells was investigated using propidium iodide staining and flow cytometric analysis according to the cell cycle kit (Abcam ®, ab139418-)[90]^,[91]^. Briefly, HL60 and leukaemia SR cells were cultured under optimum conditions. Afterwards, cells were treated by compound 1c for 48 h. Then, they were harvested, washed with PBS, and cell fixation was performed using ethanol on ice. Additionally, cells were pelleted at 500 xg for 5 min and supernatant was gently aspirated. Furthermore, fixed cells were washed by phosphate-buffered saline (PBS) and resuspended in 200 µl 1 x propidium iodide + RNAse staining solution and incubated in dark for 30 min. Finally, stained cells were tested by flow cytometer using FACSCalibur (Becton Dickinson Biosciences, CA, USA). Finally, Cell Quest software (Becton Dickinson Biosciences) was used to determine cell cycle distribution.

[3] = test system: HL60 cells; experiment: as above; format: cell-based, human; conditions: HL60, 48 h treatment
Description: as §1

[4] = test system: P53 protein in HL60 cells; experiment: Western blot; format: cell-based, human
Description: (§2) To assess the effect of compound 1c on protein expression of apoptotic and anti-apoptotic proteins levels, western blotting for selected candidate genes were performed[96]^,[97].Briefly, equal amounts (20 µg) of protein samples were mixed and boiled with SDS Loading buffer for 10 min, allowed to cool on ice and then loaded into SDS-polyacrylamide gel and separated by Cleaver electrophoresis unit (Cleaver, UK), transferred onto polyvinylidene fluoride (PVDF) membranes (BioRad) for 30 min using a Semi-dry Electro blotter (Biorad, USA) at 2.5 A and 25 V for 30 min. Additionally, the membrane was blocked by 5% non-fat dry milk solution in TBS-T for two hours at RT, in order to reduce non-specific protein interactions between the membrane and the antibody. Furthermore, the membrane was incubated overnight at 4 °C with primary antibodies, anti B-actin (Sigma ®), anti-Bax, anti-Bcl2, and anti-P53 (Abcam ®). The blots were then washed for three times (10 min each) with TBS-T. Finally, the membrane was incubated with the corresponding horse radish peroxidase (HRP)- linked secondary antibodies (Dako) for another hour at room temperature, followed by washing for three times (10 min each) with TBS-T. Then, the chemiluminescent reagent (ECL) was added according to the kit instructions and signals were detected by a CCD camera-based imager (Chemi Doc imager, Biorad, USA), and the bands intensities were measured by ImageLab (Biorad).

[5] = test system: Bcl2 protein in leukaemia SR cells; experiment: Western blot; format: cell-based, human
Description: as §2

[6] = test system: Bcl2 protein in HL60 cells; experiment: Western blot; format: cell-based, human
Description: as §2

[7] = test system: Bax protein in HL60 cells; experiment: Western blot; format: cell-based, human
Description: as §2

[8] = test system: Bax protein in leukaemia SR cells; experiment: Western blot; format: cell-based, human
Description: as §2

[9] = test system: RPMI-8226; format: cell-based
[10] = test system: RXF 393; format: cell-based; conditions: five-dose
[11] = test system: HL-60(TB); format: cell-based
[12] = test system: ACHN; format: cell-based
[13] = molecular target: T1, PI3Kα (Homo sapiens, UniProt P42336); experiment: PI3 Kinase Activity/Inhibitor Assay Kit; format: biochemical; conditions: mean of two independent replicates ± SD
T1 construct: purchased Millipore Corporation 17-493 (assay kit)
Description: In vitro PI3 kinases inhibitory activity assay
All buffers, working standards and samples were prepared.
A total of 5 μl/well 5X kinase reaction buffer was added following the addition of the substrate, then distilled water was added to fill up to 25 μl. After incubation for 1 h at room temperature, 25 μl of biotinylated PIP3/EDTA working solution was added to all wells except the buffer control. Instead, 25 μl tris-buffered saline (TBS) was added to the buffer control wells. A general receptor phosphoinsitides -1 working solution was added to all wells then, was incubated for 1 h at room temperature. After incubation, all wells were washed with 200 μl 1X TBS -Tween followed by addition of 50 μl (horseradish peroxide as econjugated streptavidin) SA -HRP then were incubated for 1 h at room temperature. All wells were washed using 100 μl 1X TBS -Tween and TBS followed by addition of 100 μl of substrate 3,3’,5,5’-tetramethylbenzidine and kept in dark for 5–20 min.

[14] = test system: caspase 3 level in leukaemia SR cells; experiment: Caspase 3 ELISA; format: cell-based, human
Description: (§3) One of the most significant downstream caspases, Caspase-3, is referred to as an effector caspase[94]^,[95]. For further analysis, the effect of compound 1c on caspase 3 enzyme level was measured using ELISA kit (Invitrogen, Catalog # KHO1091) according to the manufacturer’s instructions. Briefly, 100 µl of the standard diluent buffer to the zero standard wells. Additionally, 100 µl of standards and controls or diluted samples were added to the appropriate microtiter wells, then wells were covered with plate cover and incubated for 2 h at R.T. Afterwards, wells were aspirated gently, washed with washing buffer 4 times. Furthermore, 100 µl of caspase 3 detection antibody was added into each well except the blank wells, and the plate was covered and incubated for 1 h at R.T. Then, the aspiration and washing steps were repeated again. Finally, 100 µl of the stabilised chromogen solution were added, plate was incubated for 30 min at R.T., stop solution was used to stop the reaction and the developed colour was measured at wave length 450 nm using plat ELISA reader.

[15] = test system: caspase 3 level in HL60 cells; experiment: Caspase 3 ELISA; format: cell-based, human; conditions: HL 60 cells
Description: as §3

[16] = test system: full NCI 60 cell lines panel
[17] = test system: SF-539; format: cell-based
[18] = test system: COLO 205; format: cell-based
[19] = test system: NCI-H522; format: cell-based
[20] = test system: LOX IMVI; format: cell-based
[21] = Homo sapiens, one dose 10^-5 M, 48 h
[22] = Homo sapiens, five-dose, read-out: LC50 (the source's name)

T1 sequence (P42336 whole entry, species assumed): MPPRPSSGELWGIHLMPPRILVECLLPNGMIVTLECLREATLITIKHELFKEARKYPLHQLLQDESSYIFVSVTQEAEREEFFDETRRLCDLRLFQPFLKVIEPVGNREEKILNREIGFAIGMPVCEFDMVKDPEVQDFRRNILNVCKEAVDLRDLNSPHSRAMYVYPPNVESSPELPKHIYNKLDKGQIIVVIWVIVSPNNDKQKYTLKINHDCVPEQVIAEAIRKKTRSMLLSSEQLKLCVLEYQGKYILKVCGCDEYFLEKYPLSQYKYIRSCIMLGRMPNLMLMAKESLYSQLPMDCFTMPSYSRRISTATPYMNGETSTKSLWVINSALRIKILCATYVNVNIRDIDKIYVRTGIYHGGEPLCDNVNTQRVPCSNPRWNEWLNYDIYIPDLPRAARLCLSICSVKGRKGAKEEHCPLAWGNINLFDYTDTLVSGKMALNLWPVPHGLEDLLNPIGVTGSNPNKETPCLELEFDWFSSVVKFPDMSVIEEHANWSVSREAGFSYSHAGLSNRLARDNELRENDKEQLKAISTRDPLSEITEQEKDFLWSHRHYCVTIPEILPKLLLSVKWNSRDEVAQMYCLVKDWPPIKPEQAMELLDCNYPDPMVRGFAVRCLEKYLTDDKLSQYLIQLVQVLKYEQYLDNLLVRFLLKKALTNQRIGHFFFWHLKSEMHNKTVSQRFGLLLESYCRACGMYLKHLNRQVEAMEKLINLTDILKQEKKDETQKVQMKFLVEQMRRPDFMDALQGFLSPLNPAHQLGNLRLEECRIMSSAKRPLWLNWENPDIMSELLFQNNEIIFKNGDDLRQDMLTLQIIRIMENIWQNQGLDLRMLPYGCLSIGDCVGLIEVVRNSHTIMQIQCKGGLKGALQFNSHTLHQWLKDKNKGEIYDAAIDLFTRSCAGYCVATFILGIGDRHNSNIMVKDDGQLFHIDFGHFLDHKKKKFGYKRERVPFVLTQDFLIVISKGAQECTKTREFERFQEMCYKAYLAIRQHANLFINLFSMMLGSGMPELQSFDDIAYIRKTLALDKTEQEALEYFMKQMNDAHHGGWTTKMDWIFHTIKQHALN
T1 sequence (P27986 whole entry partner, species assumed): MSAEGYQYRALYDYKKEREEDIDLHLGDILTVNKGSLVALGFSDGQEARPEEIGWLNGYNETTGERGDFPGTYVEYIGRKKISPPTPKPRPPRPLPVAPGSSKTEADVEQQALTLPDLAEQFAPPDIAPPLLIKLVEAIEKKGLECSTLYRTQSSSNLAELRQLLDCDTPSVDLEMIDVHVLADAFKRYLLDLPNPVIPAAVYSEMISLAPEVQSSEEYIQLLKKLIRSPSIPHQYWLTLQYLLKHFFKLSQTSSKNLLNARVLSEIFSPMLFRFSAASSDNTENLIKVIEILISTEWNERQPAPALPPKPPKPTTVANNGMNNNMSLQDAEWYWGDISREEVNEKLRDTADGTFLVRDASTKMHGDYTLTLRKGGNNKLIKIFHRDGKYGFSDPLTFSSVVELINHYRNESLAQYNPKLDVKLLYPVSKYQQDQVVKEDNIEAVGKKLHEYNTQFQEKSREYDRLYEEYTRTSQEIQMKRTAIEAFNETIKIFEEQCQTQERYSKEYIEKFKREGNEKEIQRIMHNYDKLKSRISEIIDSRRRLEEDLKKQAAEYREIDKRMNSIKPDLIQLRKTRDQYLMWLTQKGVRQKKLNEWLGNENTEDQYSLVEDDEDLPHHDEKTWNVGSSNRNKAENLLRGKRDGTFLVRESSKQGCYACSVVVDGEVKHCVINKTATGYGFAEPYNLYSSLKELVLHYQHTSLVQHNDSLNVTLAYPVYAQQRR

N#Cc1c(N)nc(S)nc1-c1ccc(Cl)cc1Cl [Compound 1c, 4-Amino-6–(2,4-dichlorophenyl)-2-mercaptopyrimidine-5-carbonitrile]
GI50 ([1]; Homo sapiens, read-out: GI50 Subpanel MID^b): 13 µM
Selectivity ratio (full panel MID^a / subpanel MID^b, GI50 level) ([1]; prostate cancer): 0.99
% cells in G1 (%DIP G1) [2]: 55.22%
% cells in S phase [2]: 31.89%
% cells in G0/G1 (%DIP G1) [3]: 57.37%
% cells in S phase [3]: 33.07%
P53 protein expression vs untreated control [4]: increased the expression of P53 protein significantly
Bcl2 protein expression vs untreated control [5]: significantly inhibited the expression
Bcl2 protein expression vs untreated control [6]: significantly inhibited the expression
Bax protein expression vs untreated control [7]: significantly increased the expression
Bax protein expression vs untreated control [8]: significantly increased the expression
GI50 ([9]; Homo sapiens, five-dose): 0.6 µM
LC50 ([9]; Homo sapiens, five-dose): > 100 µM
% growth at 10 µM [9, 21]: 9.51%
TGI ([9]; five-dose): 27.50 µM
GI50 ([10]; Homo sapiens): 12.7 µM
CC50 ([10]; Homo sapiens, read-out: LC50 (the source's name)): 52.2 µM
TGI [10]: 25.70 µM
GI50 ([11]; Homo sapiens, five-dose): 0.08 µM
CC50 [11, 22]: > 100 µM
% growth at 10 µM [11, 21]: 5.3%
TGI ([11]; five-dose): 1.82 µM
GI50 ([12]; Homo sapiens, five-dose): 16.5 µM
CC50 [12, 22]: 62.1 µM
% growth at 10 µM [12, 21]: 19.6%
TGI ([12]; five-dose): 32.00 µM
IC50 [13]: 0.88 ± 0.005 µM
caspase 3 level increase vs untreated control [14]: 3.4 folds
caspase 3 level increase vs untreated control [15]: 5.6 folds
activity at 10 µM ([16]; Homo sapiens, 60 cell, 48 h, read-out: Mean % growth): 53.3%
CC50 ([16]; Homo sapiens, 60 cell, read-out: LC50 values (MG-MID)): 77.6 µM
GI50 ([16]; Homo sapiens, 60 cell, read-out: MID^a, average sensitivity of all cell lines (GI50)): 12.9 µM
GI50 ([16]; Homo sapiens, 60 cell, read-out: full panel GI50 (MG-MID)): 6.76 µM
log10 GI50, range over all 60 cell lines ([16]; five-dose): −4.50 to −7.25
% growth values, cell lines with lethal effect ([16]; one dose, range over those cell lines): −18.77 to −49.21%
GI50 ([17]; Homo sapiens, five-dose): 10.8 µM
CC50 [17, 22]: 52.4 µM
% growth at 10 µM [17, 21]: 39.9%
TGI ([17]; five-dose): 23.80 µM
GI50 ([18]; Homo sapiens, five-dose): 19 µM
CC50 [18, 22]: 70 µM
% growth at 10 µM [18, 21]: 80.5%
TGI ([18]; five-dose): 36.50 µM
GI50 ([19]; Homo sapiens, five-dose): 15.4 µM
CC50 [19, 22]: 61.3 µM
% growth at 10 µM [19, 21]: 49.4%
TGI ([19]; five-dose): 30.70 µM
GI50 ([20]; Homo sapiens, five-dose): 1.1 µM
CC50 [20, 22]: 40 µM
activity at 10 µM ([20]; Homo sapiens, one dose 10^-5 M, 48 h, read-out: % growth): -49.2%
TGI ([20]; five-dose): 15.10 µM
% growth ([20]; one dose 10^-5 M, 48 h): -49.21%

— article PMC10866072, “Design, synthesis, molecular modelling and biological evaluation of novel 6-amino-5-cyano-2-thiopyrimidine derivatives as potent anticancer agents against leukemia and apoptotic inducers” (Journal of Enzyme Inhibition and Medicinal Chemistry, 2024)
